Test results as given in PubChem BioAssay (NCI).
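In this assay, cells in 96-well plates receive the compound at five concentrations for 48 hours. Endpoints are linearly interpolated between the surrounding concentrations. TGI: total growth inhibition.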

What was measured:
Experiment in all cases: NCI tumour cell line growth inhibition, 48 h
[1] = tested on: HOP-18 NSCLC
[2] = tested on: XF 498 CNS
[3] = tested on: RXF-631 renal
[4] = tested on: P388 leukemia
[5] = tested on: P388/ADR leukemia
[6] = tested on: SN12K1 renal

SMILES: Cc1ccc(S(=O)(=O)C2=c3ncccc3=C3C(=O)c4ccccc4C(=O)C32)cc1 (stereo not drawn)
- TGI [1]: > 100 µM

SMILES: C[n+]1c2ccccc2c(NC(CCC(N)=O)C(=O)O)c2ccccc21 (stereo not drawn)
- TGI [2]: > 100 µM
- TGI [3]: > 100 µM
- TGI [1]: > 100 µM

SMILES: CCCCCCCCCCCCCCCCCC(=O)NCCCNCCCNC(=O)CCCCCCCCCCCCCCCCC
- TGI [3]: > 100 µM
- TGI [1]: > 100 µM

SMILES: Cc1ccc(N2C(=O)/C(=c3\s/c(=C(/N)O)c(=N)n3-c3ccccc3)SC2=S)cc1
- TGI [1]: > 100 µM

SMILES: CCOc1ccc(N=Cc2cc(OC)c(OC)c(OC)c2)cc1
- TGI [2]: > 100 µM
- TGI [1]: > 100 µM

SMILES: Cc1c2n(c3ccccc13)CC1C2N(C)OC1(C)C (stereo not drawn)
- TGI [2]: > 100 µM

SMILES: CC(C)(C)C1CCC2c3c([nH]c4ccccc34)C3C(=O)N(c4ccc(Br)cc4)C(=O)C3C2C1 (stereo not drawn)
- TGI [2]: 76.2 µM
- TGI [1]: > 100 µM

SMILES: CCC12C=CCN3CC[C@]4(C(=C(C(=O)OC)[C@@H]1Nc1ccn(C5OC(COC(C)=O)C(OC(C)=O)C5OC(C)=O)c(=O)n1)Nc1ccccc14)C32 (stereo partly drawn)
- TGI [2]: 9.63 µM
- TGI [1]: 14.1 µM

SMILES: Cc1[nH]n(-c2ccccc2)c(=S)c1C(=O)c1ccccc1
- TGI [2]: > 100 µM
- TGI [3]: 61.6 µM

SMILES: Nc1nc(=O)n(C2OC(CO)C(O)C2O)cc1F (stereo not drawn)
- TGI [4]: 0.0341 µM
- TGI [5]: 0.182 µM
- TGI [2]: > 100 µM
- TGI [1]: > 100 µM
- TGI [6]: > 100 µM

SMILES: Cc1ccc2c(c1)NC(=O)C(N=[N+]=[N-])(c1ccccc1)C2=O (stereo not drawn)
- TGI [2]: 60.2 µM
- TGI [1]: 88.3 µM

SMILES: CC(C)NC(C)Cc1ccccc1 (stereo not drawn)
- TGI [3]: > 100 µM
- TGI [1]: > 100 µM

SMILES: CCC(C)(C)NC1=C(NC(C)=O)C(=O)c2ccccc2C1=O
- TGI [2]: 40.2 µM

SMILES: CC1=CCC2(C#N)CCC1C2=O (stereo not drawn)
- TGI [2]: > 100 µM
- TGI [3]: > 100 µM
